Here are results for one sequence from paper PMC8305873, “Design and heterologous expression of a novel dimeric LL37 variant in Pichia pastoris” (Microbial Cell Factories, 2021).

One data set relates to E. coli ATCC 078. The format is cell-based, Escherichia coli. The following applies: Table 3, recombinant vs synthetic LG; mean ± SD of three independent experiments. The procedure: (§1) All experiments were conducted at least three different times.
The subject of data set [1] is E. coli ATCC 25922. The format is cell-based, Escherichia coli. Conditions: Table 3, recombinant vs synthetic LG; mean ± SD of three independent experiments. The procedure:
as §1

The test system of data set [2] is S. Typhimurium ATCC 14028. The format is cell-based, Salmonella Typhimurium. The following applies: Table 3, recombinant vs synthetic LG; mean ± SD of three independent experiments. As for the experimental part: as §1
In the next data set the test system is S. Typhimurium C 7731. The class given is cell-based, Salmonella Typhimurium. The following applies: Table 3, recombinant vs synthetic LG; mean ± SD of three independent experiments. As for the experimental part:
as §1

The test system of a further data set is P. aeruginosa ATCC 27853. The format is cell-based, Pseudomonas aeruginosa. The following applies: Table 3, recombinant vs synthetic LG; mean ± SD of three independent experiments. The procedure: as §1
A further data set deals with S. aureus ATCC 25923. The class given is cell-based, Staphylococcus aureus. Conditions: Table 3, recombinant vs synthetic LG; mean ± SD of three independent experiments. As for the experimental part:
as §1

For another data set, the system named is S. aureus ATCC 29213. The class given is cell-based, Staphylococcus aureus. The following applies: Table 3, recombinant vs synthetic LG; mean ± SD of three independent experiments. As for the experimental part: as §1
In data set [3] the test system is S. epidermidis ATCC 12228. The class given is cell-based, Staphylococcus epidermidis. The following applies: Table 3, recombinant vs synthetic LG; mean ± SD of three independent experiments. The procedure: as §1
Another data set has as its system S. faecalis ATCC 29212. The class given is cell-based, Streptococcus faecalis. The following applies: Table 3, recombinant vs synthetic LG; mean ± SD of three independent experiments. As for the experimental part: as §1
The subject of data set [4] is E. coli ATCC 25922. The class given is cell-based, Escherichia coli. The procedure: as §1
The salt ions were added to the BSA solution and configured into different final concentrations of salt ions (150 mM NaCl, 4.5 mM KCl, 6 µM NH4Cl, 8 µM ZnCl2, 1 mM MgCl2, 2 mM CaCl2, and 4 µM FeCl3) solutions. The method discribed as above was referred to determine the MIC value of rLG against E. coli ATCC 25922 in the presence of different concentrations of salt ions.

In a further data set the test system is human red blood cells. The experiment in a line: Hemolytic activity assay. The following applies: at the highest peptide concentration (128 μM); human red blood cells, 37 °C 1 h; 0.1% Triton X-100 = 100%. The format is cell-based.
The test system of data set [5] is E. coli ATCC 25922. The experiment in a line: Cell wall (outer membrane) permeabilization, NPN uptake. Conditions: at low concentrations (1, 2, and 4 µM); compared with melittin. The format is cell-based, Escherichia coli. As for the experimental part: The cell wall permeability was determined by monitoring the fluorescence release of the fluorescent dye NPN (Sigma, USA). E. coli ATCC 25922 (OD600 = 0.2) and NPN (10 µM) were incubated in 5 mM HEPES buffer (containing 5 mM glucose, pH 7.4) for 30 min. Then, 100 µL of peptides (0.5–32 µM) and an equal volume of bacteria were added to a 96-well plate. An F-4500 fluorescence spectrophotometer (Hitachi, Japan) was used to detect the fluorescence intensity of different wells at a 350 nm excitation wavelength and 420 nm emission wavelength. The peptide-free and polymyxin B-containing fluorescence values were set as negative and positive controls.

Data set [6] has as its system E. coli ATCC 25922. The experiment in a line: Cytoplasmic membrane depolarization, DiSC3-5. The class given is cell-based, Escherichia coli. The procedure:
DiSC3-5 was used to measure the change in plasma membrane potential after peptide treatment. E. coli ATCC 25922 (OD600 = 0.05) was incubated with 0.4 µM DiSC3-5 and 100 mM K^+ in 5 mM HEPES buffer (containing 20 mM glucose, pH 7.4) until the fluorescence decreased stably. […] A fluorescence spectrophotometer (Infinite 200 pro, Tecan, China) was used to record the fluorescence values at an excitation light wavelength of 622 nm and emission light wavelength of 670 nm.

Data set [7] relates to E. coli ATCC 25922. Put plainly: Transmission electron microscopy (TEM). Conditions: 1/2 × MIC (1 μM), 37 °C 1 h. The format is cell-based, Escherichia coli. The procedure:
E. coli ATCC 25922 was cultured to the logarithmic growth phase and centrifuged to obtain the bacteria. The bacteria were resuspended twice in 0.01 M PBS (pH 7.4) and diluted to OD600 = 0.3. The rLG and bacteria were mixed to a final concentration of 1/2 × MIC (1 μM), and the bacteria without peptide were used as a control. Both samples were incubated at 37 °C for 1 h. The incubated sample was centrifuged at 2500×g for 5 min and washed three times with 0.01 M PBS. Two milliliters of 2.5% glutaraldehyde buffer was added to the bacterial pellet, and the suspension was gently blown and fixed at 4 °C overnight. The cells were washed with 0.01 M PBS and fixed in 1% osmate buffer for 1 h. Then, different concentrations of ethanol were used for gradient dehydration (50%, 70%, 85%, 95% and 100%). Finally, the sample was prepared into ultrathin sections through the process of soaking and embedding, and a Hitachi H-7650 TEM (Hitachi, Japan) was used for observation.

Data set [8] concerns E. coli ATCC 25922. The class given is cell-based, Escherichia coli. Conditions: in the absence of physiological salts and serum.

Protocol for human red blood cells: The collected blood of type B from healthy donor was centrifuged at 1000×g for 5 min to collect red blood cells. The red blood cells were then washed and resuspended in 10 mM PBS (pH 7.4). Fifty microliters of diluted red blood cells and an equal volume of peptide solution (2–128 µM) were incubated in a 96-well plate at 37 °C for 1 h. The red blood cell suspension treated with 0.1% Triton X-100 was used as a positive control (100% hemolysis), and untreated blood cell suspension was used as a negative control. The 96-well plate was centrifuged at 1000×g for 5 min at 4 °C, and then the supernatant was transferred to a new 96-well plate. The absorbance at OD570 was measured with a microplate reader.

As a reminder, the MIC is the smallest concentration in the dilution series that meets the test's criterion for growth inhibition. Turning to “FKRIVQRIKRFLRGGGGSFKRIVQRIKRFLR [rLG, recombinant LG expressed in P. pastoris as 6 × His-SUMO-LG and released by SUMO protease]”, the MIC in the data set on E. coli ATCC 078 is 1.22 ± 0.19 µM; in the data set on E. coli ATCC 25922 [1], 1.77 ± 0.19 µM; in data set [2] it was 3.78 ± 0.44 µM; with S. Typhimurium C 7731 it was 1.33 ± 0.25 µM; with P. aeruginosa ATCC 27853 it was 4.44 ± 1.78 µM; in the data set on S. aureus ATCC 25923, 4.44 ± 1.78 µM. The figures for the MIC (in the data set with S. aureus ATCC 29213; in [3]; with S. faecalis ATCC 29212) were 2.00 ± 0.00 µM, 1.89 ± 0.11 µM and 1.89 ± 0.11 µM, respectively. Further, the “MIC under physiological salt concentration, FeCl3” value with E. coli ATCC 25922 [4] (4 µM FeCl3) was determined as 2 µM. Moreover, the “MIC under physiological salt concentration, NH4Cl” value with E. coli ATCC 25922 [4] (6 µM NH4Cl) is recorded as 2 µM. In addition, the “MIC under physiological salt concentration, ZnCl2” value in the data set with E. coli ATCC 25922 [4] (8 µM ZnCl2) is 2 µM. In the data set on E. coli ATCC 25922 [4] (1 mM MgCl2), the “MIC under physiological salt concentration, MgCl2” value is 4 µM. The “MIC under physiological salt concentration, CaCl2” value in the data set on E. coli ATCC 25922 [4] (2 mM CaCl2) is more than 32 µM. For the same sequence, in the data set with E. coli ATCC 25922 [4] (4.5 mM KCl), the “MIC under physiological salt concentration, KCl” value amounted to 2 µM. Moreover, the “MIC under physiological salt concentration, NaCl” value in the data set with E. coli ATCC 25922 [4] (150 mM NaCl) was determined as 2 µM. Also, in the data set with E. coli ATCC 25922 [4] (geometric mean of the MIC values in the seven salt solutions), the “MIC under physiological salt concentration, GM” value is on record as 3.62 µM. Moreover, the “MIC under physiological salt concentration, Fold” value with E. coli ATCC 25922 [4] (increase of the MIC value (GM in salts) over the control without salts) was found to be 1.81. Also, the “hemolysis (blood cells destroyed)” value in the data set on human red blood cells is reported as “approximately 23%”. Besides, the “ability to damage or destroy the bacterial cell wall (NPN fluorescence)” value with E. coli ATCC 25922 [5] is reported as “better than that of melittin”. For the same sequence, the “plasma membrane potential (DiSC3-5 fluorescence intensity)” value with E. coli ATCC 25922 [6] (lowest tested concentration (1 µM)) is given as “caused a rapid increase in fluorescence intensity”. Besides, the “damage to plasma membrane potential compared with melittin (DiSC3-5)” value in the data set on E. coli ATCC 25922 [6] (rLG compared with 16 µM melittin) is given as “stronger than that of 16 µM melittin”. Also, in the data set on E. coli ATCC 25922 [7], the “internal morphology by TEM” value is “the membrane of E. coli was destroyed, and the cell contents flowed out”. Further, in the data set on E. coli ATCC 25922 [8], the “MIC, Control” value was determined as 2 µM.
